Experimental data as given in patent publication US4351949A, “Bicyclic prostaglandin analogs and method of synthesis” (Iowa State University Research Foundation, Inc., priority 1981, dated 1982).
≈ marks a conversion by molar mass, not a printed value. Like-named read-outs stand apart in the source and are kept apart here.

Legend:
[1] = test system: arachidonic acid induced platelet aggregation; test: in vitro arachidonic acid induced blood platelet aggregation; assay type: cell-based
Protocol: The compounds of Examples 1 through 11 were tested against arachidonic acid induced platelet aggregation.

[2] = test system: experimental thrombosis; test: in vivo biolaser model of experimental thrombosis (rabbit ear chamber); settings: combined with anagrelide at a lower than threshold level
Description: These compounds were studied in vivo in an animal model for experimental thrombosis. The use of this model is described in detail in the reprint, Use of the Biolaser in the Evaluation of Anti-Thrombotic Agents, J. S. Fleming et al. "Platelets and Thrombosis", eds. S. Sherry and A. Scriabrine, University Park Press, 1974, Baltimore, which is incorporated herein by reference.
In brief, a micro-injury is created by a laser beam focused through a microscope onto the endothelium surface of a small blood vessel in a surgically implanted ear chamber of a rabbit. The injury induces the rapid formation of a platelet thrombis which can be measured. […] Prostacyclin is active in the biolaser model when infused intraveneously. The results of these tests preliminarily indicate that there is a super additive interaction between anagrelide and the compounds of this invention. […] To date, no other compounds have undergone significant in vivo analysis in the rabbit ear test.

[3] = test system: experimental thrombosis; settings: cited from earlier work; for inhibition of laser-induced thrombosis by potent inhibitors of platelet aggregation: rabbit ear chamber, general statement on the model
[4] = concentration of agent necessary to reduce by 50% the in vitro blood platelet aggregation caused by addition of arachidonic acid, read-out: EC 50 vs Arachidonic Acid
[5] = Platelet, for comparison, vs arachidonic acid, read-out: EC 50 of comparison compounds

| SMILES | EC50 [1, 4] [µg/mL] | other results |
| --- | --- | --- |
| CCCCCC(O)C#CC1C2CCC(C2)C1C/C=C/CCCC(=O)OC (stereo not drawn) [Example 2] | 0.07 (≈ 0.194 µM) | reduction in thrombosis in combination with anagrelide [2]: substantial reduction in thrombosis |
| CCCCCC(O)C#CC1C2CCC(C2)C1C/C=C/C(=O)O (stereo not drawn) [Example 5] | 4 (≈ 13.1 µM) |  |
| CCCCCC(O)C#CC1C2CCC(CC2)C1C/C=C/CCCC(=O)OC (stereo not drawn) [Example 8] | 5.8 (≈ 15.5 µM) |  |
| CCCCCC(O)C#CC1C2CCC(C2)C1C/C=C/CCCCO (stereo not drawn) [Example 9] | 3.6 (≈ 10.8 µM) |  |
| CCCCC[C@H](O)/C=C/[C@H]1[C@H](O)CC(=O)[C@@H]1CCCCCCC(=O)O [PGE1, reference compound] |  | EC50 [1, 5]: 0.018 µg/mL (≈ 0.0508 µM) |
| O=C1CN2Cc3c(ccc(Cl)c3Cl)N=C2N1 [anagrelide] |  | inhibition of laser-induced thrombosis by potent inhibitors of platelet aggregation [3]: significant inhibition |
| CCCCC[C@H](O)/C=C/[C@@H]1[C@H]2C/C(=C/CCCC(=O)O)O[C@H]2C[C@H]1O [prostacyclin] |  | EC50 [1, 5]: 0.004 µg/mL (≈ 0.0113 µM); activity in the biolaser model ([3]; infused intravenously, rabbit): active; inhibition of laser-induced thrombosis by potent inhibitors of platelet aggregation [3]: significant inhibition |

The next lines start with results.

| EC50 [1, 4] [µg/mL] | SMILES | other results |
| --- | --- | --- |
| 0.045 (≈ 0.13 µM) | CCCCCC(O)C#CC1C2CCC(C2)C1C/C=C/CCCC(=O)O (stereo not drawn) [Example 1] |  |
| 1 (≈ 2.48 µM) | CCCCCC(O)C#CC1C2CCC(C2)C1C/C=C/CCCCCCCC(=O)O (stereo not drawn) [Example 3] |  |
| 0.4 (≈ 0.96 µM) | CCCCCC(O)C#CC1C2CCC(C2)C1C/C=C/CCCCCCCC(=O)OC (stereo not drawn) [Example 4] |  |
| 8 (≈ 25.1 µM) | CCCCCC(O)C#CC1C2CCC(C2)C1C/C=C/C(=O)OC (stereo not drawn) [Example 6] |  |
| 3.6 (≈ 10 µM) | CCCCCC(O)C#CC1C2C=CC(C2)C1C/C=C/CCCC(=O)OC (stereo not drawn) [Example 7] |  |
